# Earlier results as cited in patent US11357858B2, “Pharmaceutical compositions for the treatment of postoperative pain” (FIDIA FARMACEUTICI S.P.A., priority 2018, dated 2022).
# Structures can show the parent of a compound that is named as a salt.
# Conditions: in vivo
compound,measurement,value
CCCN1CCCC[C@H]1C(=O)Nc1c(C)cccc1C [ropivacaine HCl],maximum dose which can be administered without the onset of side effects,about 2.5 mg/kg
